Marks after values point to notes of the source that are not given here.

The source of these data is patent publication US20220323411A1, “COMPOSITIONS FOR THE TREATMENT OF SOLID TUMORS” (Raziel Therapeutics Ltd., priority 2019, published 2022).

For data set [1], the system named is A549 cells. The data set can be described thus: Xenograft Study 1: A549 subcutaneous tumors in nude mice, intratumoral injection. Type of data set: in vivo. The conditions noted are these: for Tumor volume 3 weeks after injection (mm^3 ± S.E.M.): first dose day 25, double dose day 32, mean, N=10, initial volume 496; for Reduction in tumor volume vs. vehicle (%): 3 weeks after injection. The procedure:
A549 cells were injected subcutaneously to nude mice and allowed to grow to an estimated tumor volume of about 500 mm^3 as determined by caliper. The mice were divided into four groups (N=10 per group), dosed twice via intratumoral injection with either a vehicle (comprising water for injection, benzyl alcohol, propylene glycol, and Tween-80) or with 1 mg, 2.5 mg, or 5 mg of 5-(3, 6-dibromo-9H-carbazol-9-yl)-N,N,N-trimethylpentan-1-aminium chloride according to the experimental design shown in Table 1 below:
For three weeks post-injection, tumor size was determined by caliper and tumor volume was calculated. Mean tumor volumes for the various cohorts are summarized in Table 2 below and graphically in FIG. 1 (arrows indicate treatment days), while the mice's change in body weight is summarized in FIG. 2.

In data set [2] the test system is A549 cells. The data set can be described thus: Xenograft Study 2: A549 subcutaneous tumors in nude mice, intratumoral injection. Type of data set: in vivo. The procedure: A549 cells were injected subcutaneously to nude mice and allowed to grow to an estimated tumor volume of about 300 mm^3 as determined by caliper. The mice were divided into three groups (N=10 per group), dosed three times via intratumoral injection with either a vehicle (comprising water for injection, benzyl alcohol, propylene glycol, and Tween-80) or with 5 mg of […])-N,N,N-trimethylpentan-1-aminium chloride, or not injected at all, according to the experimental design shown in Table 3 below:
For three weeks post-injection, tumor size was determined by caliper and tumor volume was calculated. Median tumor volumes for the various cohorts are summarized in Table 4 below and graphically in FIG. 3 (arrows indicate treatment days), while the mice's change in body weight is summarized in FIG. 4.

Where [3] appears, read: 5 mg intratumoral, dosed three times.

As to `C[N+](C)(C)CCCCCn1c2ccc(Br)cc2c2cc(Br)ccc21` [Test Compound, 5-(3,6-dibromo-9H-carbazol-9-yl)-N,N,N-trimethylpentan-1-aminium chloride], the “Tumor volume 3 weeks after injection (mm^3 ± S.E.M.)” value is recorded as 1753 (±80) mm^3 in data set [1] (1 mg/mouse intratumoral), 1512 (±149) mm^3 in data set [1] (2.5 mg/mouse intratumoral) and 1309 (±229) mm^3 in data set [1] (5 mg/mouse intratumoral). Besides, the “Reduction in tumor volume vs. vehicle (%)” value was 7.7% in data set [1] (1 mg/mouse intratumoral, P-value vs. vehicle 0.86); 20.4% in data set [1] (2.5 mg/mouse intratumoral, P-value vs. vehicle 0.17); 31.1* % in data set [1] (5 mg/mouse intratumoral, P-value vs. vehicle 0.03). Besides, the “Effect on mouse body weight” value in data set [1] (5 mg intratumoral, dosed twice) is “did not affect mouse body weight”; in data set [2] (setting [3]), “did not affect mouse body weight”. Besides, the “Effect on tumor size” value was “significantly reduced tumor size” in data set [1] (5 mg intratumoral, dosed twice) and “significantly reduced tumor size” in data set [2] (setting [3]). Also, in data set [2] (5 mg/mouse intratumoral once a week for 3 weeks, P-value vs. non-injected group 0.02), the “Reduction in tumor volume vs. non-injected group (%)” value is given as 46* %. Moreover, in data set [2] (5 mg/mouse intratumoral once a week for 3 weeks, median, N=10, initial volume 287), the Tumor volume 3 weeks after injection (median) was 648 mm³.
